In article PMC3948684, “Approaches to Improve the Oral Bioavailability and Effects of Novel Anticancer Drugs Berberine and Betulinic Acid” (PLoS ONE, 2014):
Read-outs that look alike come from different tables or passages of the source.

What was measured:
VEGF = assay: Quantification of VEGF by ELISA; assay type: in vivo, athymic Nu/nu mice
Experimental: VEGF levels were estimated in plasma, tumor tissue homogenates by ELISA method. Tumors were homogenized in RIPA lysis buffer (20 mM Tris-HCl pH 7.5, 150 mM NaCl, 1% Triton X-100) containing proteinase inhibitors (Complete Proteinase Inhibitor Cocktail Tablets, Roche, Indianapolis. IN). Tissue debris was pelleted and the resulting supernatant was used in subsequent analysis. Total protein concentration was determined with a BCA protein assay (Pierce, Rockford, IL). VEGF concentrations were determined according to the manufacturer's instructions. A minimum of 3 tumors per group were analyzed in duplicate.

[1] = In vitro Caco-2 permeability study; settings: human, Caco-2, pH 5.8
Experimental: Caco-2 cells (passage #29) were cultured at 37°C with culture medium replaced every 2 days in an atmosphere of 5% CO2 and 95% relative humidity. Cells were harvested upon reaching approximately 80-90% confluence with 0.25% trypsin–EDTA. Cells were grown on 1.12 cm^2 0.4 μm pore polycarbonate membrane inserts in 12 mm × 12 transwell permeable support plates (Corning, NY, USA). Caco-2 cells were seeded onto membranes at 50,000 cells/well. Individual wells received 1.5 mL of culture medium at the bottom and 0.5 mL of medium was added to the top of inserts which was changed on alternate days. Confluent monolayers were used for permeability studies at ~21 days post seeding. Transepithelial electrical resistance (TEER) of Caco-2 monolayers was measured prior to all experiments using the EVOM volt-ohm-meter (Millicell-ERS; Millipore, USA) to ensure monolayer integrity. The TEER (Ω·cm^2) values of the cell monolayers were determined by the resistance (Ω) × effective membrane area (cm^2). TEER values were measured across each cell monolayer prior to beginning the experimentation and at the last sample collection time point. Transport studies were initiated by removing culture medium from the apical (A) and basolateral (B) sides of the cell monolayer. […] The effective permeability (Peff) (cm/s) was determined using Eq. 1: […]

CD31 = assay: IHC analysis of orthotopic lung tumor sections (microvessel density); assay type: in vivo, athymic Nu/nu mice; settings: A549 tumors; CD31 positive cells
Source text: (§1) Formalin fixed tumors were processed for automatic histopathological procedures. The detailed procedure was provided in Data S1 [30].
(§2) C) IHC for cleaved caspase 3 and CD31: Formalin fixed tumors were processed for automatic histopathological procedures. The detailed procedure was provided in supplmmentary data (Supple). Tissue sections were dehydrated by immersing in increasing concentrations of alcohol and embedded in paraffin. Paraffin embedded specimens were cut into thin sections (4-5 µm). Tissue sections (4–5 μm thick) were mounted on poly-L-lysine–coated slides and sections were deparaffinized with xylene and rehydration through graded concentrations of alcohol, then incubated with 3% […] for 20 min to block endogenous peroxidase activity. Antigen retrieval for cleaved caspase 3 and CD31 staining was carried out for 10 min in 0.01 M sodium citrate buffer (pH 6), heated at 95°C in a steam bath followed by cooling for 30 min. Endogenous peroxidase was blocked by 3% hydrogen peroxide in PBS for 10 min. The slides were washed with PBS and incubated for 1h at room temperature with a protein blocking solution. […] Numbers of positive cells per filed was quantified by counting 10 different fields from each section. Based on the CD31 positive cells, microvessel density (MVD) was calculated (30).

[2] = parameters: method as in PMID 19283771; settings: oral administration of 100 mg/kg in rats ref 24; cited from earlier work
[3] = Oral pharmacokinetic study; assay type: in vivo, Sprague Dawley rats
Experimental: Rats were fasted overnight before the start of the experiments and randomly divided into two experimental groups. […] Pharmacokinetic parameters were analyzed using non-compartmental techniques with WinNonlin® 5.0 software (Pharsight Corporation, Mountain View, CA, USA). SHAM analysis (i.e., Slope, Height, Area, and Moment) utilized plasma concentration-time data to estimate the area under the curve (AUC), apparent terminal elimination rate constant (λz), terminal elimination half-life (t1/2) and the area under the first moment of the plasma concentration–time curve (AUMC). The AUC was calculated for each rat using the piecewise log trapezoidal areas and extrapolated to infinity by dividing λz into the last measured plasma concentration (i.e. Clast/λz). From the values of AUC0_0-∞ and AUMC0-∞, the clearance (CL), mean residence time (MRT) and volume of distribution at tissue equilibrium (Vss) were calculated based on noncompartmental monoexponential assumptions as: CL = Dose/AUC, MRT≅AUMC/AUC and Vss = CL×MRT. The noncompartmental parameters were calculated for each rat before averaging dose groups. The pharmacokinetic parameters such as AUC, Cmax, t1/2, tmax, MRT, etc were compared between the free drug and SD formulations.

survivin = assay: Western blot of orthotopic lung tumor lysates; assay type: in vivo, athymic Nu/nu mice; settings: A549 tumors; densitometry
Experimental: (§3) Western blot analysis was performed to study the expression of Bcl-2, cleaved caspase 3, survivin, cyclin D1, p53, MMP-9, HIF-1α. The detailed procedure was given as Data S1.
(§4) B) Western blot analysis: western blot analysis was performed to study the expression of Bcl-2, cleaved caspase 3, survivin, cyclin D1, p53, MMP-9, HIF-1α. The detailed procedure was given in supplementary data. Protein was extracted from tumor tissues collected from untreated control and drug treated animals using RIPA lysis buffer (50mM Tris-HCL, pH 8.0, with 150 mM sodium chloride, 1.0% Igepal CA-630 (NP-40), 0.5% sodium deoxychlorate, and 0.1% sodium dodecyl sulfate) with protease inhibitor and 500 mM phenylmethylsulfonyl fluoride. Protein concentration was measured using BCA Protein Assay Reagent Kit (PIERCE, Rockford, IL). Equal amounts of supernatant protein (50 μg) was denatured by boiling for 5 min in SDS sample buffer, separated by 10% SDS-PAGE, transferred to nitrocellulose membranes for immunoblotting. Membranes were blocked with 5% skim milk in Tris-buffered saline with Tween 20 [10mM Tris-HCL (pH 7.6), 150 mM Nacl, and 0.5% Tween 20] and probed with antibodies against Bcl-2 (1:1000), cleaved caspase 3 (1:500), survivin (1:1000), cyclin D1(1:1000), p53 (1:1000), MMP-9 (1:1000), HIF-1α (1:1000) and β-actin (1:1000). Horseradish peroxidase-conjugated secondary antibodies (Santa Cruz Biotechnology, Santa Cruz, CA) were used. Proteins were visualized using enhanced chemiluminescent solution (Pierce, Rockford, IL) and exposed to Kodak X-OMAT AR autoradiography film (Eastman Kodak, Rochester, NY).

Bcl-2 = assay: Western blot of orthotopic lung tumor lysates; assay type: in vivo, athymic Nu/nu mice; settings: A549 tumors; densitometry
Experimental: as §3, §4

cyclin D1 = assay: Western blot of orthotopic lung tumor lysates; assay type: in vivo, athymic Nu/nu mice; settings: A549 tumors; densitometry
Experimental: as §3, §4

p53 = assay: Western blot of orthotopic lung tumor lysates; assay type: in vivo, athymic Nu/nu mice; settings: A549 tumors; densitometry
Experimental: as §3, §4

HIF-1α = assay: Western blot of orthotopic lung tumor lysates; assay type: in vivo, athymic Nu/nu mice; settings: A549 tumors
Experimental: as §3, §4

[4] = parameters: method as in PMID 17531424; settings: single oral dose of 400 mg ref 20; cited from earlier work
cleaved caspase 3 = assay: IHC analysis of orthotopic lung tumor sections; assay type: in vivo, athymic Nu/nu mice; settings: A549 tumors
Source text: as §1, §2

[5] = Sprague Dawley, rat, plasma, po, 100 mg/kg orally

COc1ccc2cc3[n+](cc2c1OC)CCc1cc2c(cc1-3)OCO2.[Cl-] [BBR free drug, 5,6-dihydro-9,10-dimethoxy-benzo[g]-1,3-benzodioxolo[5,6-a]quinolizinium, chloride]
VEGF levels in tumor lysates (VEGF; untreated control 284.71±42.84): 137.59±20.84 pg/mg protein
VEGF levels in serum (VEGF; untreated control 597.90±54.03): 315.41 ± 44.06 pg/mL
Papp A→B at 120 min, 100 µM [1]: ~0.29 ×10⁻⁶ cm/s
microvessel density (MVD) reduced compared to untreated control tumors (CD31): 1.44 fold
Cmax [2]: 4 ng/mL
CL ([3]; 100 mg/kg orally): 2.034 ± 0.2813 mL/min/kg
AUMC (0-∞) ([3]; BBR, 100 mg/kg orally): 5619.03±651.24 ng.h^2/ml
Vss ([3]; BBR, 100 mg/kg orally): 1.04839 ± 0.10635 L/kg
half-life ([3]; Sprague Dawley, rat, plasma, po, 100 mg/kg, read-out: t½ (converted)): 5.95 ± 0.47 h
MRT [3, 5]: 6.85 ± 1.68 h
Tmax [3, 5]: 1.41 ± 0.67 h
AUC(0-inf) ([3]; Sprague Dawley, rat, plasma, po, BBR, 100 mg/kg orally): 819 ± 82 ng·h/mL
Cmax ([3]; Sprague Dawley, rat, po, BBR, 100 mg/kg orally, plasma): 147 ± 21.8 ng/mL
survivin expression down regulated compared to control (survivin): 2.03 fold
beta actin relative Bcl-2 expression reduced compared to untreated control (Bcl-2): 2.79 fold
cyclin D1 relative expression reduced compared to untreated control (cyclin D1): 1.02 fold
relative expression of p53 increased compared to untreated control (p53): 2.51 fold
HIF-1α expression (HIF-1α): significantly down regulated
Cmax in human plasma [4]: 0.4 ng/mL
number of cleaved caspase 3 positive apoptotic cells, higher compared to control (cleaved caspase 3): 4.20 fold
